Test system: C57/BL6J mice
Experiment: In vivo plasma GLP-1 level-increasing action: plasma active GLP-1 level (ELISA) after oral administration
Conditions: 10 mg/kg oral; for Significant difference (p < 0.05) vs control group, plasma active GLP-1 level: 30 minutes, Student's t-test; for Plasma active GLP-1 level (relative value to control group as 100), average value: blood 30 minutes after, 0.5% CMC-Na group = 100
Description: Seven-week-old male C57/BL6J mice were purchased from CLEA Japan, Inc. for use, and they were subjected to an experiment after 1 week of a habituation period.
After the habituation period, the mice were subjected to 5.5 hours of food deprivation and 2 hours of water deprivation. Thereafter, a cyclic dipeptide dissolved or suspended in a 0.5% CMC-Na aqueous solution in 10 mg/kg was orally administered to each mouse forcibly. After 30 minutes, the blood was collected from the abdominal vena cava under anesthesia, and 1 μL of heparin sodium and 1 μL of 10 mM Sitagliptin phosphate were added to each collected blood, which was then subjected to centrifugation at 8000 rpm for 10 minutes to recover the plasma, and the plasma active GLP-1 level was measured by using the ELISA kit. In the analysis, the active GLP-1 level for a group administered with 0.5% CMC-Na aqueous solution was defined as 100, and relative values thereto were used.

CC1NC(=O)C(Cc2c[nH]c3ccccc23)NC1=O (stereo not shown) [compound 76, Cyclo(Trp-Ala)]
Significant difference (p < 0.05) vs control group, plasma active GLP-1 level (Table 11, Experiment 6): No
Plasma active GLP-1 level (relative value to control group as 100), average value (Table 11, Experiment 6): 110

CSCCC1NC(=O)C(C(C)C)NC1=O (stereo not shown) [compound 160, cyclo-methionyl-valine]
Significant difference (p < 0.05) vs control group, plasma active GLP-1 level (Table 15, Experiment 10): Yes
Plasma active GLP-1 level (relative value to control group as 100), average value (Table 15, Experiment 10): 304

N=C(N)NCCCC1NC(=O)C(Cc2ccc(O)cc2)NC1=O (stereo not shown) [compound 94, Cyclo(Arg-Tyr)]
Significant difference (p < 0.05) vs control group, plasma active GLP-1 level (Table 12, Experiment 7): No
Plasma active GLP-1 level (relative value to control group as 100), average value (Table 12, Experiment 7): 222

CSCCC1NC(=O)C(C)NC1=O (stereo not shown) [compound 125, cyclo-methionyl-alanine]
Significant difference (p < 0.05) vs control group, plasma active GLP-1 level (Table 14, Experiment 9): Yes

CC(C)[C@@H]1NC(=O)[C@H](Cc2ccc(O)cc2)NC1=O [compound 88, cyclo-valyl-tyrosine]
Significant difference (p < 0.05) vs control group, plasma active GLP-1 level (Table 12, Experiment 7): Yes
Plasma active GLP-1 level (relative value to control group as 100), average value (Table 12, Experiment 7): 385

O=C1N[C@@H](Cc2ccc(O)cc2)C(=O)N[C@H]1Cc1ccc(O)cc1 [compound 49, Cyclo(Tyr-Tyr)]
Significant difference (p < 0.05) vs control group, plasma active GLP-1 level (Table 10, Experiment 5): No
Plasma active GLP-1 level (relative value to control group as 100), average value (Table 10, Experiment 5): 100

NC(=O)CC[C@@H]1NC(=O)[C@H](Cc2c[nH]c3ccccc23)NC1=O [compound 82, Cyclo(Trp-Gln)]
Significant difference (p < 0.05) vs control group, plasma active GLP-1 level (Table 11, Experiment 6): No
Plasma active GLP-1 level (relative value to control group as 100), average value (Table 11, Experiment 6): 90

CC[C@H](C)[C@@H]1NC(=O)[C@H](CC(=O)O)NC1=O [compound 162, cyclo-isoleucyl-aspartic acid]
Significant difference (p < 0.05) vs control group, plasma active GLP-1 level (Table 15, Experiment 10): Yes
Plasma active GLP-1 level (relative value to control group as 100), average value (Table 15, Experiment 10): 259

CC(C)CC1NC(=O)C(CC(=O)O)NC1=O (stereo not shown) [compound 146, cyclo-aspartyl-leucine]
Significant difference (p < 0.05) vs control group, plasma active GLP-1 level (Table 15, Experiment 10): Yes
Plasma active GLP-1 level (relative value to control group as 100), average value (Table 15, Experiment 10): 259

CC(C)C1NC(=O)C(CC(=O)O)NC1=O (stereo not shown) [compound 140, cyclo-valyl-aspartic acid]
Significant difference (p < 0.05) vs control group, plasma active GLP-1 level (Table 14, Experiment 9): Yes
Plasma active GLP-1 level (relative value to control group as 100), average value (Table 14, Experiment 9): 120

CC(C)[C@@H]1NC(=O)[C@H](C(C)C)NC1=O [compound 11, Cyclo(Val-Val)]
Significant difference (p < 0.05) vs control group, plasma active GLP-1 level (Table 9, Experiment 4): No
Plasma active GLP-1 level (relative value to control group as 100), average value (Table 9, Experiment 4): 100

CCC(C)C1NC(=O)C(Cc2ccc(O)cc2)NC1=O (stereo not shown) [compound 89, Cyclo(Ile-Tyr)]
Significant difference (p < 0.05) vs control group, plasma active GLP-1 level (Table 12, Experiment 7): No
Plasma active GLP-1 level (relative value to control group as 100), average value (Table 12, Experiment 7): 222

O=C1CNC(=O)[C@H](Cc2ccccc2)N1 [compound 8, Cyclo(Gly-Phe)]
Significant difference (p < 0.05) vs control group, plasma active GLP-1 level (Table 9, Experiment 4): No
Plasma active GLP-1 level (relative value to control group as 100), average value (Table 9, Experiment 4): 85

CC(C)C1NC(=O)C(Cc2cnc[nH]2)NC1=O (stereo not shown) [compound 108, Cyclo(Val-His)]
Significant difference (p < 0.05) vs control group, plasma active GLP-1 level (Table 13, Experiment 8): No
Plasma active GLP-1 level (relative value to control group as 100), average value (Table 13, Experiment 8): 118

CC(C)C[C@@H]1NC(=O)[C@H](Cc2c[nH]c3ccccc23)NC1=O [compound 39, cyclo-leucyl-tryptophan]
Significant difference (p < 0.05) vs control group, plasma active GLP-1 level (Table 8, Experiment 3): Yes
Plasma active GLP-1 level (relative value to control group as 100), average value (Table 8, Experiment 3): 229

O=C(O)CC[C@@H]1NC(=O)[C@H](Cc2ccc(O)cc2)NC1=O [compound 87, Cyclo(Glu-Tyr)]
Significant difference (p < 0.05) vs control group, plasma active GLP-1 level (Table 12, Experiment 7): No
Plasma active GLP-1 level (relative value to control group as 100), average value (Table 12, Experiment 7): 141

CC(C)CC1NC(=O)C(CCC(=O)O)NC1=O (stereo not shown) [compound 145, cyclo-glutamyl-leucine]
Significant difference (p < 0.05) vs control group, plasma active GLP-1 level (Table 15, Experiment 10): Yes
Plasma active GLP-1 level (relative value to control group as 100), average value (Table 15, Experiment 10): 236

CC(C)[C@@H]1NC(=O)[C@H](CC(N)=O)NC1=O [compound 141, cyclo-asparaginyl-valine]
Significant difference (p < 0.05) vs control group, plasma active GLP-1 level (Table 15, Experiment 10): Yes
Plasma active GLP-1 level (relative value to control group as 100), average value (Table 15, Experiment 10): 191

CSCC[C@@H]1NC(=O)CNC1=O [compound 127, cyclo-methionyl-glycine]
Significant difference (p < 0.05) vs control group, plasma active GLP-1 level (Table 14, Experiment 9): Yes
Plasma active GLP-1 level (relative value to control group as 100), average value (Table 14, Experiment 9): 124

CC1NC(=O)C(C(C)C)NC1=O (stereo not shown) [compound 122, Cyclo(Val-Ala)]
Significant difference (p < 0.05) vs control group, plasma active GLP-1 level (Table 13, Experiment 8): No
Plasma active GLP-1 level (relative value to control group as 100), average value (Table 13, Experiment 8): 94

O=C1N[C@@H](Cc2ccc(O)cc2)C(=O)N[C@H]1CO [compound 29, Cyclo(Ser-Tyr)]
Significant difference (p < 0.05) vs control group, plasma active GLP-1 level (Table 9, Experiment 4): No
Plasma active GLP-1 level (relative value to control group as 100), average value (Table 9, Experiment 4): 95

CC(C)C[C@@H]1NC(=O)[C@H](CC(C)C)NC1=O [compound 15, Cyclo(Leu-Leu)]
Significant difference (p < 0.05) vs control group, plasma active GLP-1 level (Table 9, Experiment 4): No
Plasma active GLP-1 level (relative value to control group as 100), average value (Table 9, Experiment 4): 95

CCC(C)C1NC(=O)C(C(C)C)NC1=O (stereo not shown) [compound 138, Cyclo(Ile-Val)]
Significant difference (p < 0.05) vs control group, plasma active GLP-1 level (Table 14, Experiment 9): No
Plasma active GLP-1 level (relative value to control group as 100), average value (Table 14, Experiment 9): 96

CCC(C)C1NC(=O)C(C)NC1=O (stereo not shown) [compound 123, Cyclo(Ile-Ala)]
Significant difference (p < 0.05) vs control group, plasma active GLP-1 level (Table 14, Experiment 9): No
Plasma active GLP-1 level (relative value to control group as 100), average value (Table 14, Experiment 9): 120

CC(C)[C@@H]1NC(=O)[C@H](Cc2ccccc2)NC1=O [compound 54, Cyclo(Val-Phe)]
Significant difference (p < 0.05) vs control group, plasma active GLP-1 level (Table 6, Experiment 1): No
Significant difference (p < 0.05) vs control group, plasma active GLP-1 level (Table 10, Experiment 5): No

CCC(C)C1NC(=O)C(CC(C)C)NC1=O (stereo not shown) [compound 71, Cyclo(Ile-Leu)]
Significant difference (p < 0.05) vs control group, plasma active GLP-1 level (Table 11, Experiment 6): No
Plasma active GLP-1 level (relative value to control group as 100), average value (Table 11, Experiment 6): 79

CC[C@H](C)[C@@H]1NC(=O)[C@H]([C@@H](C)CC)NC1=O [compound 14, Cyclo(Ile-Ile)]
Significant difference (p < 0.05) vs control group, plasma active GLP-1 level (Table 9, Experiment 4): No
Plasma active GLP-1 level (relative value to control group as 100), average value (Table 9, Experiment 4): 105

CSCC[C@@H]1NC(=O)[C@H]([C@H](C)O)NC1=O [compound 169, cyclo-methionyl-threonine]
Significant difference (p < 0.05) vs control group, plasma active GLP-1 level (Table 15, Experiment 10): Yes
Plasma active GLP-1 level (relative value to control group as 100), average value (Table 15, Experiment 10): 282

O=C(O)CCC1NC(=O)C(Cc2c[nH]c3ccccc23)NC1=O (stereo not shown) [compound 77, Cyclo(Trp-Glu)]
Significant difference (p < 0.05) vs control group, plasma active GLP-1 level (Table 11, Experiment 6): No
Plasma active GLP-1 level (relative value to control group as 100), average value (Table 11, Experiment 6): 110

O=C1N[C@@H](Cc2ccc(O)cc2)C(=O)N2CCC[C@@H]12 [compound 30, Cyclo(Pro-Tyr)]
Significant difference (p < 0.05) vs control group, plasma active GLP-1 level (Table 9, Experiment 4): No
Plasma active GLP-1 level (relative value to control group as 100), average value (Table 9, Experiment 4): 95

CC1NC(=O)C(Cc2ccc(O)cc2)NC1=O (stereo not shown) [compound 86, Cyclo(Ala-Tyr)]
Significant difference (p < 0.05) vs control group, plasma active GLP-1 level (Table 11, Experiment 6): No
Plasma active GLP-1 level (relative value to control group as 100), average value (Table 11, Experiment 6): 90

O=C1N[C@@H](Cc2ccccc2)C(=O)N[C@H]1Cc1ccccc1 [compound 17, cyclo-phenylalanyl-phenylalanine]
Significant difference (p < 0.05) vs control group, plasma active GLP-1 level (Table 8, Experiment 3): Yes
Plasma active GLP-1 level (relative value to control group as 100), average value (Table 8, Experiment 3): 203

O=C1N[C@@H](Cc2cnc[nH]2)C(=O)N[C@H]1Cc1ccccc1 [compound 38, cyclo-histidyl-phenylalanine]
Significant difference (p < 0.05) vs control group, plasma active GLP-1 level (Table 8, Experiment 3): Yes
Plasma active GLP-1 level (relative value to control group as 100), average value (Table 8, Experiment 3): 264

CSCCC1NC(=O)C(CCSC)NC1=O (stereo not shown) [compound 12, Cyclo(Met-Met)]
Significant difference (p < 0.05) vs control group, plasma active GLP-1 level (Table 9, Experiment 4): No
Plasma active GLP-1 level (relative value to control group as 100), average value (Table 9, Experiment 4): 110
